# Measured values published in patent publication US10017459B2, “β-substituted β-amino acids and analogs as chemotherapeutic agents and uses thereof” (Quadriga Biosciences, Inc., priority 2015, dated 2018).
# pIC50: −log10 of the molar value.
# How the values were obtained:
# B16 melanoma cells = experiment: In vivo tumor growth suppression, B16 efficacy model; set-up: species or system mouse; details: C57BL/6 mice, IP daily for 12 days; test compound 5 mg/kg and 10 mg/kg, melphalan 2.5 mg/kg
# [1] = test system: LLCPK cells conditionally expressing hLAT1
# [2] = test system: human bone marrow cells (erythroid and myeloid progenitors); experiment: In vitro bone marrow toxicity, colony forming cell assays; details: 14 days in culture, methylcellulose media
# hLAT1 = target: T1, hLAT1 (Homo sapiens, UniProt Q01650); experiment: LAT1 uptake inhibition assay, radiolabeled competition uptake with [3H]-Gabapentin; format: cell-based
# T1 construct: expressed in transfected cells; host or cells: LLCPK cells, tetracycline/doxycycline-inducible, boosted with sodium butyrate
# hLAT2 = target: T2, hLAT2 (Homo sapiens, UniProt Q9UHI5); experiment: LAT2 uptake inhibition assay, radiolabeled competition uptake with [3H]-leucine; format: cell-based
# T2 construct: expressed in transfected cells; host or cells: KB or LLCPK cells, tetracycline/doxycycline-inducible
# T2 sequence (Q9UHI5 1-535): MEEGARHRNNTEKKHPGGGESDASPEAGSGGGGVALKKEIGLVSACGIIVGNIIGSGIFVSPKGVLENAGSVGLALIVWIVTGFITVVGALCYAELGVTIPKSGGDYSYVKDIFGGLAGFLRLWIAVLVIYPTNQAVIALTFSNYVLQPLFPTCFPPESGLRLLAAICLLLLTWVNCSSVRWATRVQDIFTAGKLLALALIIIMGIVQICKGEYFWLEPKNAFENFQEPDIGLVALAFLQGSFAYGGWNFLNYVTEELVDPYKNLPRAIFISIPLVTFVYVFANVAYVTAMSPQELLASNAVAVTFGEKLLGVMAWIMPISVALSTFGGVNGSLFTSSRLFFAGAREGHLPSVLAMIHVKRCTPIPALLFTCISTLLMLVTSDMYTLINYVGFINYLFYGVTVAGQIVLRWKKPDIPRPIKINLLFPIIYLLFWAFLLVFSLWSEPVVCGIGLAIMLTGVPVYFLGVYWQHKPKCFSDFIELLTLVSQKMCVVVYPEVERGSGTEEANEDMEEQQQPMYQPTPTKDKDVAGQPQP
# T2 sequence (P08195 1-630 isoform P08195-1 partner): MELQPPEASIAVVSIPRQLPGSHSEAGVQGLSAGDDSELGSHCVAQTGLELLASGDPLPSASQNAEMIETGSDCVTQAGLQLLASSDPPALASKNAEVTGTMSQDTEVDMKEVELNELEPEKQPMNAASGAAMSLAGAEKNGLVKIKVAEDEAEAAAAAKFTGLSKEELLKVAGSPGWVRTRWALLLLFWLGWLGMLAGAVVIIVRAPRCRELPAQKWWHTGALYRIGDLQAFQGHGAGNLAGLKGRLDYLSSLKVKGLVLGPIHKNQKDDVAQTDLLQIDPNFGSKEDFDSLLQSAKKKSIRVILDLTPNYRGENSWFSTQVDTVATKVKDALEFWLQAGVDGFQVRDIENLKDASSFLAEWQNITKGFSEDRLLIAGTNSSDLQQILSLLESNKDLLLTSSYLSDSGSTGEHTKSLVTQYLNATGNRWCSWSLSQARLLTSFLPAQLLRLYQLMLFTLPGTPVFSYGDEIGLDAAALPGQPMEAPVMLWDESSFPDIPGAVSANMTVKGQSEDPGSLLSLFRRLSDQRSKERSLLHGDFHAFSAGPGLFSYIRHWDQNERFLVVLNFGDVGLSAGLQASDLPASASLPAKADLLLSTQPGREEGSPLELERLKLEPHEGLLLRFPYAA
# U251 = experiment: cells; format: cell-based; details: Homo sapiens, U-251, read-out: IC50 (in vitro toxicity)
# LN229 = experiment: cells; format: cell-based; details: Homo sapiens, LN-229, read-out: IC50 (in vitro toxicity)
# 42MGBA = experiment: cells; format: cell-based; details: read-out: IC50 (in vitro toxicity)
# DBRTG = experiment: cells; format: cell-based; details: read-out: IC50 (in vitro toxicity)
# G55 = experiment: cells; format: cell-based; details: read-out: IC50 (in vitro toxicity)
# 794 = experiment: cells; format: cell-based; details: read-out: IC50 (in vitro toxicity)
# D283 = experiment: cells; format: cell-based; details: D283, read-out: IC50 (in vitro toxicity)
# MDA-MB-231 [3] = experiment: cells; format: cell-based; details: Homo sapiens, MDA-MB-231, read-out: IC50 (in vitro toxicity)
# MV411 = experiment: cells; format: cell-based; details: Homo sapiens, MV4-11, read-out: IC50 (in vitro toxicity)
# Raji = experiment: cells; format: cell-based; details: Homo sapiens, read-out: IC50 (in vitro toxicity)
# PC3 = experiment: cells; format: cell-based; details: Homo sapiens, PC-3, read-out: IC50 (in vitro toxicity)
# KMS34 = experiment: cells; format: cell-based; details: KMS-34, read-out: IC50 (in vitro toxicity)
# L363 = experiment: cells; format: cell-based; details: Homo sapiens, L-363, read-out: IC50 (in vitro toxicity)
# AMO1 = experiment: cells; format: cell-based; details: Homo sapiens, AMO1, read-out: IC50 (in vitro toxicity)
# U266 = experiment: cells; format: cell-based; details: Homo sapiens, U-266, read-out: IC50 (in vitro toxicity)
# MM1.S = experiment: cells; format: cell-based; details: Homo sapiens, read-out: IC50 (in vitro toxicity)
# HS27A = experiment: cells; format: cell-based; details: HS-27A, read-out: IC50 (in vitro toxicity)
# RPMI8266 = experiment: cells; format: cell-based; details: RPMI8266, read-out: IC50 (in vitro toxicity)
# KMS11 = experiment: cells; format: cell-based; details: Homo sapiens, KMS-11, read-out: IC50 (in vitro toxicity)
# HS5 = experiment: cells; format: cell-based; details: HS5, read-out: IC50 (in vitro toxicity)
# MDA-MB-231 [4] = experiment: Triple negative breast cancer study, IV dosing; format: in vivo, mouse; details: IV once a week for 8 weeks
# Procedure: The efficacy of compounds provided by the present disclosure was evaluated on a triple negative breast cancer xenograft model—MDA-MB-231. Human triple negative breast cancer cells were implanted into the flank of nude mice and the study was initiated after the volume of the tumors was 150 mm^3. The animals were IV dosed once a week for 8 weeks with either vehicle or 5 mg/kg of compound (5), or 20 mg/kg compound (7). The tumor volume, body weight, white blood cell count, and granulocyte count were determined during the study and 12 days after the final dose was administered.
# [5] = test system: LLCPK cells conditionally expressing hLAT1; experiment: cells; details: 0.5 h, read-out: LC50, concentration of test compound at which the percent surviving cells was 50%
# [6] = test system: Human prostate cancer PC3 cells; details: mouse, in vivo
# HCT116 = experiment: In vitro cytotoxicity, HCT116; format: cell-based; details: Homo sapiens, HCT-116, read-out: IC50 (in vitro toxicity)
# MCF7 = experiment: In vitro cytotoxicity, MCF7; format: cell-based; details: Homo sapiens, MCF7, read-out: IC50 (in vitro toxicity)
# T1 sequence (Q01650 whole entry, one chain of several): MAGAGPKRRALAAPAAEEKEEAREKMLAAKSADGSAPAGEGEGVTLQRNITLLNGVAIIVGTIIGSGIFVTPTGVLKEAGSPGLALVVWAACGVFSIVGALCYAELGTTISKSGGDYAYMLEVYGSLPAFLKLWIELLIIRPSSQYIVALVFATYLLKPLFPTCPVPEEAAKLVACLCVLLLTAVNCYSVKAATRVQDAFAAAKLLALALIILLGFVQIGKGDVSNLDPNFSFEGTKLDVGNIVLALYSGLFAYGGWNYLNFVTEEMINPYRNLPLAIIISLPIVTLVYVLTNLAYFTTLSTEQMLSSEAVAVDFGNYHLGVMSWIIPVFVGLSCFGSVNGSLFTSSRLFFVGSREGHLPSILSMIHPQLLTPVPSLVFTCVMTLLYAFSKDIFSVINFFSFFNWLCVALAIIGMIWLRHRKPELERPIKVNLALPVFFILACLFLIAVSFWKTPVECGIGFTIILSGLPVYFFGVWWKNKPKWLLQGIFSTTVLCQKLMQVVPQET
SMILES,pIC50 (hLAT2),pIC50 (U251),pIC50 (LN229),pIC50 (42MGBA),pIC50 (DBRTG),pIC50 (G55),pIC50 794,pIC50 (D283),pIC50 (MDA-MB-231 [3]),pIC50 (MV411),pIC50 (Raji),pIC50 (PC3),pIC50 (KMS34),pIC50 (L363),pIC50 (AMO1),pIC50 (U266),pIC50 (MM1.S),pIC50 (HS27A),pIC50 (RPMI8266),pIC50 (KMS11),also measured
"N[C@@H](Cc1ccc(N(CCCl)CCCl)cc1)C(=O)O [melphalan, reference compound]",–,–,–,–,–,–,–,–,–,–,–,–,–,–,–,–,–,–,–,–,"Tumor Growth (% Control), 5 days post-dosing (B16 melanoma cells): 56 % Control; Tumor Growth (% Control), End of dosing (B16 melanoma cells): 33 % Control; percent surviving cells in cells expressing LAT1 versus cells not expressing LAT1 (in words) [1]: about the same; toxicity to bone marrow progenitor cells (BFU-E, CFU-GM, Total CFC) [2]: more toxic to bone marrow progenitor cells than compound (5)"
"COc1ccc(N(CCCl)CCCl)cc1C[C@H](N)CC(=O)O [Compound 7, (3S)-3-Amino-4-[5-[bis(2-chloroethyl)amino]-2-methoxy-phenyl]butanoic Acid]",> 4.00,> 4.00,> 4.00,> 4.00,> 4.00,> 4.00,> 4.00,> 4.00,> 4.00,> 4.00,> 4.00,> 4.00,< 4.00,< 4.00,< 4.00,> 4.00,> 4.00,< 4.00,< 4.00,< 4.00,"pIC50 (hLAT1): > 4.00; pIC50 (HS5): < 4.00; body weight (MDA-MB-231 [4]): maintained weight; myelosuppression (MDA-MB-231 [4]): not dectected; tumor growth suppression (MDA-MB-231 [4]; nude mice, 5 mg/kg compound (5), 20 mg/kg compound (7)): dose-dependent tumor growth suppression; CC50 [5]: < 1 µM; body weight [6]: maintained weight; myelosuppression [6]: not dectected; tumor growth suppression [6]: dose-dependent tumor growth suppression"
"COc1ccc(N(CCCl)CCCl)c(C[C@H](N)CC(=O)O)c1 [Compound 51, (3S)-3-amino-4-[2-[bis(2-chloroethyl)amino]-5-methoxy-phenyl]butanoic acid]",> 4.00,> 4.00,> 4.00,> 4.00,> 4.00,> 4.00,> 4.00,> 4.00,> 4.00,> 4.00,> 4.00,> 4.00,> 4.00,> 4.00,< 4.00,> 4.00,> 4.00,< 4.00,< 4.00,< 4.00,pIC50 (HCT116): > 4.00; pIC50 (MCF7): > 4.00; pIC50 (HS5): < 4.00; CC50 [5]: < 1 µM; body weight [6]: maintained weight; myelosuppression [6]: not dectected; tumor growth suppression [6]: dose-dependent tumor growth suppression
